Reference: ChEMBL document CHEMBL1201862, “PubChem BioAssay data set” (2004)
The source made the active and inactive calls.

Legend:
[1] = molecular target: Platelet-activating factor acetylhydrolase (Mus musculus, UniProt Q60963); experiment: Late stage assay provider results from the probe development effort to identify inhibitors of pPAFAH: fluorescence-based dose-response biochemical gel-based competitive Activity-Based Protein Profiling (ABPP) assay for SAR compounds.; type: functional
[2] = molecular target: Platelet-activating factor acetylhydrolase (Homo sapiens, UniProt Q13093); experiment: Late stage assay provider results from the probe development effort to identify inhibitors of plasma platelet activating factor acetylhydrolase (pPAFAH): fluorescence-based dose response biochemical gel-based competitive Activity-Based Protein Profiling (ABPP) inhibition of human pPAFAH.; type: functional, cell-free
[3] = molecular target: Disintegrin and metalloproteinase domain-containing protein 17 (Homo sapiens, UniProt P78536); experiment: exosite inhibitors of ADAM17, dose response, biochemical (AID 743260)
[4] = inhibition of ADAM10 peptide cleavage – biochemical, FRET peptide substrate, recombinant human ADAM10, selectivity assay for ADAM17 exosite inhibitor project, dose response (AID 743259);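 note: ADAM10 enzyme cleaving a FRET peptide substrate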
[5] = non-specific 3'UTR reporter inhibition in Clone20-Shn3RL – cell-based, Renilla luciferase, cherry-picked, counter-screen for Shn3 inhibitor project, dose response (AID 624133); type: functional
[6] = molecular target: T1, Microphthalmia-associated transcription factor (Homo sapiens, UniProt O75030); experiment: reducers of TRPM1 reporter luminescence, concentration series – cell-based, SK-MEL-5, cherry-picked, set 3, MITF inhibitor project, dose response (AID 493073); type: functional;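 note: SK-MEL-5 melanoma cells with luciferase driven by the MITF target TRPM1 promoter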
T1 sequence (O75030 whole entry): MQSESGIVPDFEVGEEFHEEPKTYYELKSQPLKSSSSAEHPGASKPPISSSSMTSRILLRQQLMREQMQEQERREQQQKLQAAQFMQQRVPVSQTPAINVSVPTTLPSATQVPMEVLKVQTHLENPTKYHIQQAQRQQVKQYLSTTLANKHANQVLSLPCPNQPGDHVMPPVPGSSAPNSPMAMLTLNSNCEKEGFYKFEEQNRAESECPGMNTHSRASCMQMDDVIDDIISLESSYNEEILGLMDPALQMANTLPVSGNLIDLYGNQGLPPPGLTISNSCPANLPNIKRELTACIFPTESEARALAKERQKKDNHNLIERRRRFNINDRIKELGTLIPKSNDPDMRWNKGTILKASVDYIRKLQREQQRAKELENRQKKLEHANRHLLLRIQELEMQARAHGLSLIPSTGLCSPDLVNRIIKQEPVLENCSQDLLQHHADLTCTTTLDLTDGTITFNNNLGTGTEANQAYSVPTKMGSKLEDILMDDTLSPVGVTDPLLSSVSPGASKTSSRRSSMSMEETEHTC

Interleukin-8 [7] = molecular target: T2, Interleukin-8 (Homo sapiens, UniProt P10145); experiment: Dose Response confirmation of uHTS small molecule hits for cystic fibrosis induced NFkb Inhibitors in a TNFa-induced IL8 counterscreen.; type: functional; details: read-out: IC50_Mean
[8] = reduction of Shn3 3'UTR-driven luciferase in osteoblasts – cell-based, Clone20 osteoblasts, firefly luciferase, cherry-picked, dose response (AID 624132); type: functional;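 note: firefly luciferase luminescence from reporter carrying the Shn3 3'UTR in osteoblasts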
Interleukin-8 [9] = molecular target: T2, Interleukin-8; experiment: Dose Response confirmation of uHTS small molecule hits for cystic fibrosis induced NFkb Inhibitors in a PAF-induced IL8 counterscreen.; type: functional; details: read-out: IC50_Mean
[10] = loss of viability in HepG2 cells – cell-based, CellTiter-Glo, cherry-picked, cytotoxicity control for Shn3 inhibitor project, dose response (AID 624134); type: functional
[11] = HEK-293T cell viability reduction – luminescence, B-cell screen hits, cytotoxicity control for BCR NF-kB inhibitor project, dose response (AID 489021); type: functional, cell-based;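 note: HEK-293T cells carrying an NF-kB luciferase reporter; cells exposed to compound for about 14 hours before viability readout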
Protein RecA = molecular target: T3, Protein RecA (Mycobacterium tuberculosis, UniProt P9WHJ3); experiment: Fluorescence Cell-Free Homogeneous Dose Retest to Identify Inhibitors of RecA-Intein Splicing Activity. [Related pubchem assays (depositor defined):AID2097, AID2223, AID489010, AID492950]; type: functional
T3 sequence (P9WHJ3 whole entry): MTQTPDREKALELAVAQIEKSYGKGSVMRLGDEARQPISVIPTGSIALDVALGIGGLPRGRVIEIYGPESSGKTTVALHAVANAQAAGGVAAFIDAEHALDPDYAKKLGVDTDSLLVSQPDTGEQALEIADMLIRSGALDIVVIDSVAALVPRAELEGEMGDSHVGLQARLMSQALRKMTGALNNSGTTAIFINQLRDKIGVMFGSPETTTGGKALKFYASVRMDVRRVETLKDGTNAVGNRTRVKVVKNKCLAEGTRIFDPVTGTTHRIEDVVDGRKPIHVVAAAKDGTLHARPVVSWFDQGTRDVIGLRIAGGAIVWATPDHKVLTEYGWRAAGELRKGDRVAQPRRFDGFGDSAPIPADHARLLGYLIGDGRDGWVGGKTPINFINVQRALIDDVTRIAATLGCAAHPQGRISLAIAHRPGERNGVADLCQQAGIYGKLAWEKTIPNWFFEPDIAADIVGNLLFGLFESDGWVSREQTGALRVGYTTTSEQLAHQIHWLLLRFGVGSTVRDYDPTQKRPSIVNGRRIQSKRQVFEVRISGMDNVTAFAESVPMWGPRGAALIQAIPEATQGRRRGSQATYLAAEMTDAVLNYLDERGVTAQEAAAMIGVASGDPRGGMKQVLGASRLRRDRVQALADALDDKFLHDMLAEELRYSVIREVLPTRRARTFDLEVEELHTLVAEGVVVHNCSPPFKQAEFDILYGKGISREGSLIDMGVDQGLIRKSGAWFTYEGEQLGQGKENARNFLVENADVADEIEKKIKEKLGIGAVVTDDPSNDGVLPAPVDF

[12] = molecular target: Mitochondrial peptide methionine sulfoxide reductase (Bos taurus, UniProt P54149); experiment: Absorbance-based biochemical high throughput dose response assay for activators of Methionine sulfoxide reductase A (MsrA).; type: functional
[13] = molecular target: T4, Replicative DNA helicase DnaB (Mycobacterium tuberculosis, UniProt P9WMR3); experiment: DnaB intein splicing inhibitors, dose response, biochemical, cell-free fluorescence (AID 449749); type: functional
T4 sequence (P9WMR3 whole entry): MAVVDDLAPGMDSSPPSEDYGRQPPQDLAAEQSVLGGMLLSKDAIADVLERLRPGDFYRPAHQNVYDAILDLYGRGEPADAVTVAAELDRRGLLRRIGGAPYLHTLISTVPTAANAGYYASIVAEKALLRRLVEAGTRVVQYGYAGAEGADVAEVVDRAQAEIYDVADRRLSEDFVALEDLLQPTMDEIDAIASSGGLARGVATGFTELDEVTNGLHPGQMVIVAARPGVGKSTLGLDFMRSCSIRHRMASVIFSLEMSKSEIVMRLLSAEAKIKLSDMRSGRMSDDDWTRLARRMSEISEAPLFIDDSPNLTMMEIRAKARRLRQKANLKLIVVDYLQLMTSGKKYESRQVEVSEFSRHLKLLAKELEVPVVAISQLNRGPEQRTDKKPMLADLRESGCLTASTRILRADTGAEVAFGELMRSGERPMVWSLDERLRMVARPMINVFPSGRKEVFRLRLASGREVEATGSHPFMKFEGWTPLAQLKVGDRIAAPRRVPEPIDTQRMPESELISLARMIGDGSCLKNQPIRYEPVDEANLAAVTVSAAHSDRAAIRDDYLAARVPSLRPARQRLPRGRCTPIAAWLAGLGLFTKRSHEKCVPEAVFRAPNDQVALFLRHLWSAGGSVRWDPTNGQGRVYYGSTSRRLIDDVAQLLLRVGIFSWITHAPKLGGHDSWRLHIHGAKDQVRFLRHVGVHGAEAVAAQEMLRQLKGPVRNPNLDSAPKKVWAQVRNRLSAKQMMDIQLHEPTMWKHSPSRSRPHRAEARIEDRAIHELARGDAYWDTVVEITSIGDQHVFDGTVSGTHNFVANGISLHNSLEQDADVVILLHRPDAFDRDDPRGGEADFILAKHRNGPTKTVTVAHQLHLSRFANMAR

Hexokinase HKDC1 = molecular target: T5, Hexokinase HKDC1 (Homo sapiens, UniProt Q2TB90); experiment: inhibition of HKDC1 glucose phosphorylation – biochemical, W721R variant, dose response (AID 504729); type: functional
T5 sequence (Q2TB90 whole entry): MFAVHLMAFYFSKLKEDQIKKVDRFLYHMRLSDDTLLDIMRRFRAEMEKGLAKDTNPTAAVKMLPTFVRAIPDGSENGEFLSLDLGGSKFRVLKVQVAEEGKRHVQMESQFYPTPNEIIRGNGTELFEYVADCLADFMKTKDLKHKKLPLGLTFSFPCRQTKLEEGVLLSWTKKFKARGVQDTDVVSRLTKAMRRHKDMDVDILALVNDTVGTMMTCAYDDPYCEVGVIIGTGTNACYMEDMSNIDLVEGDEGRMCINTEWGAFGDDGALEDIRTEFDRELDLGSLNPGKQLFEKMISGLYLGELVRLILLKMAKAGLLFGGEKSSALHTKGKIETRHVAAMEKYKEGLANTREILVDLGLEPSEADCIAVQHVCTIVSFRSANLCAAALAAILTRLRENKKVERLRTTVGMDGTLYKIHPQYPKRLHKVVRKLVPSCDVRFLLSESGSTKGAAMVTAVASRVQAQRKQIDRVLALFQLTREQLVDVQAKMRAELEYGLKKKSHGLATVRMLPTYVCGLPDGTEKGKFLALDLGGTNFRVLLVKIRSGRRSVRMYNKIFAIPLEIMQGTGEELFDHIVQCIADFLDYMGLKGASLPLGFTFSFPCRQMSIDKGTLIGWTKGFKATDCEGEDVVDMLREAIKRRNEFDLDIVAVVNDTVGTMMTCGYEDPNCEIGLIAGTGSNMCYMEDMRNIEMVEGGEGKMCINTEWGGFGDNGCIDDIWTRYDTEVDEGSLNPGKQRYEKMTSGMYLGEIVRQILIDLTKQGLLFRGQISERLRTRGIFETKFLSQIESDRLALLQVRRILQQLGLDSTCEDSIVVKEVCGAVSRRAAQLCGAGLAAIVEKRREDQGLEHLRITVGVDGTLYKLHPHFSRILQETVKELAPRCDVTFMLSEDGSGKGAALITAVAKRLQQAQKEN

[14] = molecular target: Histone-lysine N-methyltransferase NSD2 (Homo sapiens, UniProt O96028); type: biochemical
[15] = bead-based luminescence quenchers, dual-tagged ARNT – biochemical, AlphaScreen, cherry-pick, artefact control for ARNT-TACC3 interaction inhibitor project, dose response (AID 651705); type: functional;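 note: AlphaScreen bead proximity signal that flags compounds interfering with the detection technology; potency reflects signal decrease which marks the compound as an assay artifact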

T2 sequence (P10145 whole entry): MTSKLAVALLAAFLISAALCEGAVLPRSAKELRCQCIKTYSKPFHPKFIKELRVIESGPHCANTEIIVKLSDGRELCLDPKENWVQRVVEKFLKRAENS
Sequence of Platelet-activating factor acetylhydrolase (Mus musculus, UniProt Q60963) (Q60963 whole entry): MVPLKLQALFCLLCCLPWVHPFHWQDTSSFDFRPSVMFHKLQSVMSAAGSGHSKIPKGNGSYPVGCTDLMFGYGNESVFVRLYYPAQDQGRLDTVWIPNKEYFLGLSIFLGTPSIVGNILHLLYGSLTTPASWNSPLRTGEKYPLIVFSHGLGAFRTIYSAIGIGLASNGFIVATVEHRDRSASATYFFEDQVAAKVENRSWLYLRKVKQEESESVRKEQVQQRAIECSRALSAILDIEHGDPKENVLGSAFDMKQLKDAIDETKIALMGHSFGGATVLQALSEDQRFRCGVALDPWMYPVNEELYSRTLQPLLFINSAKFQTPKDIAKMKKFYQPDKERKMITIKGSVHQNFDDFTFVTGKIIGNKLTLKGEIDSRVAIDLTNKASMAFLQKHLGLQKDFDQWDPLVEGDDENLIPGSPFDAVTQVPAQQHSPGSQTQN
Sequence of Mitochondrial peptide methionine sulfoxide reductase (P54149 whole entry): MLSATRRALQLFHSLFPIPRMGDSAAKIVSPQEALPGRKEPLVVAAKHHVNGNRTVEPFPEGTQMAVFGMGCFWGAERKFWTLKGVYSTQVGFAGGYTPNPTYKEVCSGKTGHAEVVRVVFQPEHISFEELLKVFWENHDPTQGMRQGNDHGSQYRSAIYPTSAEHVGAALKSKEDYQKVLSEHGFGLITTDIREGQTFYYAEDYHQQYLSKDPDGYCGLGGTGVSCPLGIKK
Sequence of Disintegrin and metalloproteinase domain-containing protein 17 (P78536 whole entry, the tested form may be a part): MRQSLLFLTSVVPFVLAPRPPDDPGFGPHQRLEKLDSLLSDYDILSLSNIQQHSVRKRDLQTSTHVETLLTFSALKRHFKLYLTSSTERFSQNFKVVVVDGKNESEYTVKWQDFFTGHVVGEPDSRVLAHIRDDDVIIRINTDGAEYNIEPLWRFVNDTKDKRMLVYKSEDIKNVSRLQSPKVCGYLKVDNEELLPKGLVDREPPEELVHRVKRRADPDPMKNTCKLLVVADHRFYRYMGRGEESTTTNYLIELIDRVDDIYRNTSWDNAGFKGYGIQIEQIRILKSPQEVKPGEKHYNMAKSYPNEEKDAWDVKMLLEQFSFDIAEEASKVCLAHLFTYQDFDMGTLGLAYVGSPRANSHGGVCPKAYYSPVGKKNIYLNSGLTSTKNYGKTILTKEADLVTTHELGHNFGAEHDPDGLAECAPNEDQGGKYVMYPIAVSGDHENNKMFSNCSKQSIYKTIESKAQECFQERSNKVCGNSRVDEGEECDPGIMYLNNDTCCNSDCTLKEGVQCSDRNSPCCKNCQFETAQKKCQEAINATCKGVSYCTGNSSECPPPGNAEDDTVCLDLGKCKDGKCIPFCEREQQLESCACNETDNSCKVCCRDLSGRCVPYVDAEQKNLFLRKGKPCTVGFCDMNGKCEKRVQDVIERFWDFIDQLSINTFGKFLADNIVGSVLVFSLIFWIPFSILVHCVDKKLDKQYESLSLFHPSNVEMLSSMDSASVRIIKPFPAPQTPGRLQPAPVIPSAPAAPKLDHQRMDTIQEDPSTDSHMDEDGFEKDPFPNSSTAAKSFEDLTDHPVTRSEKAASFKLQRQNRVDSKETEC
Sequence of Histone-lysine N-methyltransferase NSD2 (O96028 whole entry): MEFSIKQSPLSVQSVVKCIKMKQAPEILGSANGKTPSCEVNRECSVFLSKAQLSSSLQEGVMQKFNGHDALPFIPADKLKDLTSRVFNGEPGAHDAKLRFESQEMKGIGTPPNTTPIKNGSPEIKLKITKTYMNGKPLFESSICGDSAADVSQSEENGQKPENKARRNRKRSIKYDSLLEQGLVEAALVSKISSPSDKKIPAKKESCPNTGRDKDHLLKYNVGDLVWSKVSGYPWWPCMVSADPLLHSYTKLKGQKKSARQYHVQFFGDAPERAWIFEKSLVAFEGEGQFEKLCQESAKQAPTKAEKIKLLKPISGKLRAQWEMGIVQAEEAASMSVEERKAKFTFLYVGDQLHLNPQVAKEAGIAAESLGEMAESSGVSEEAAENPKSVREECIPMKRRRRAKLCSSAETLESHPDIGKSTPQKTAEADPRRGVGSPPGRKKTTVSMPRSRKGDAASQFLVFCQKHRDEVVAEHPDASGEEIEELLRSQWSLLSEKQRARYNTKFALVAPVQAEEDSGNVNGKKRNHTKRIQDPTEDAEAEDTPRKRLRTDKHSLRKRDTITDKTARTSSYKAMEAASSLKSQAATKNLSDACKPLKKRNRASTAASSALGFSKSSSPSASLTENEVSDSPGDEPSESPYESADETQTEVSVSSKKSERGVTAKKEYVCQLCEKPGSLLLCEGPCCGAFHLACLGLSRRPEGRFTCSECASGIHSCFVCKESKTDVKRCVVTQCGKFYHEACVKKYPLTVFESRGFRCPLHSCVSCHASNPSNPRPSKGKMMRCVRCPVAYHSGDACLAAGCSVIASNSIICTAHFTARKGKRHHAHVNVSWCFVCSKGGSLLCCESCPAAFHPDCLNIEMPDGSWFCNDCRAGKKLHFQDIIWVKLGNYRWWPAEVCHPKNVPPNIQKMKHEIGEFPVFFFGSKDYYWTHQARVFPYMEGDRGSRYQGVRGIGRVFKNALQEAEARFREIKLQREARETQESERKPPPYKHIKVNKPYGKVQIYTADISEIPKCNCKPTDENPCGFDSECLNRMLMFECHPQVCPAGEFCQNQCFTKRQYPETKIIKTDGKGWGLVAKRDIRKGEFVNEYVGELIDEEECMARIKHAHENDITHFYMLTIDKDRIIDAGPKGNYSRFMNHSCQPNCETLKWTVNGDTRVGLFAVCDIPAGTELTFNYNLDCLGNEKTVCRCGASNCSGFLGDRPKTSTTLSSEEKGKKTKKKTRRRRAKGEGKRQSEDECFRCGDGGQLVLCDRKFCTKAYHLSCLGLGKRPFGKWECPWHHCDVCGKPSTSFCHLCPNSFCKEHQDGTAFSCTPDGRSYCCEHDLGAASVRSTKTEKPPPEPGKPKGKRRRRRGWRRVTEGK
Sequence of Platelet-activating factor acetylhydrolase (Homo sapiens, UniProt Q13093) (Q13093 whole entry, the tested form may be a part): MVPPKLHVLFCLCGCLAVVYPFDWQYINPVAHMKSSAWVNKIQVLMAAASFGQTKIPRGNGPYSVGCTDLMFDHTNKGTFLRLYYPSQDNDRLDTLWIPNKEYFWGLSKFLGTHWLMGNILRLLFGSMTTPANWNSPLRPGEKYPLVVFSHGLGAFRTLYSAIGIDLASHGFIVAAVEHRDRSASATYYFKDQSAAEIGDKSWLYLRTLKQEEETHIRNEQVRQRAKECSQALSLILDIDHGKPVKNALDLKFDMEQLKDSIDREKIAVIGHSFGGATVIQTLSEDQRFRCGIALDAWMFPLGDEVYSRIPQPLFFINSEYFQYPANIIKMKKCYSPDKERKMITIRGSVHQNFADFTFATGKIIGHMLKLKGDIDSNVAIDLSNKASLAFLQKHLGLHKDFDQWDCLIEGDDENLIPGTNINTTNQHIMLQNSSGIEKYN

With `Cc1cc(N2CCN(C(=O)Oc3ccc(-c4ccccc4)cn3)CC2)c2ccccc2n1` the IC50 [1] was 0.031 µM (active), the IC50 [2] was 0.006 µM (active) and the IC50 [3] was > 69.4 µM (inactive). For the same molecule, the IC50 [4] was > 69.4 µM (inactive).

In the case of `CC(C)(C)C(=O)/C(=C/c1ccncc1)n1cncn1`, the AC50 [5] is reported as 7.23 µM (active), the AC50 [6] is reported as 6.63 µM (active) and the IC50 (Interleukin-8 [7]) is reported as 1.25 µM (active). For the same molecule, the AC50 [8] was 3.27 µM (active), the IC50 (Interleukin-8 [9]) was 0.607 µM (active) and the AC50 [10] was 16.8 µM (active). For the same molecule, the IC50 [11] was > 80 µM (inactive).

For `O=C1c2ccccc2C(=O)c2cc(S(=O)(=O)Nc3ccccc3)ccc21`, the EC50 (Protein RecA) was 12.1 µM (active), the EC50 [12] was > 104 µM (inactive) and the AC50 [13] was 29.8 µM (active).

With `NC1=CC(=O)C(=O)c2ccccc21` [4-AMINO-[1,2]NAPHTHOQUINONE] the IC50 (Hexokinase HKDC1) was 34 µM (inactive), the AC50 [14] was 1.74 µM (active) and the AC50 [15] was 107 µM (active).
